ChEMBL document CHEMBL1152149 (Bioorg Med Chem Lett, 2008)
Where a name gives a salt, the structure may show the parent alone.

What follows are molecules tested on Influenza A virus (assay: microbe, parasite or virus in culture). Settings: MDCK.
For `CC1(N)C2CC3CC(C2)CC1C3` (stereo unspecified), the EC50 was less than 2000 nM.
`CCCC1(N)C2CC3CC(C2)CC1C3` (stereo unspecified) showed an EC50 of less than 1700 nM.
In the case of `C1CNC2(C1)C1CC3CC(C1)CC2C3` (stereo unspecified), the EC50 is reported as 1800 nM.
Molecule `CC1(O)C2CC3CC(C2)CC1C3` (stereo unspecified) has an EC50 of 10800 nM.
Work on `CCC1(N)C2CC3CC(C2)CC1C3` (stereo unspecified) yielded an EC50 of less than 1900 nM.
In the case of `NC12CC3CC(CC(C3)C1)C2` [AMANTADINE HYDROCHLORIDE], the EC50 is reported as less than 900 nM.
